According to patent US20240327415A1, “Multicomponent Complexes, Including Salts, Crystalline Forms, and Hydrates and Solvates of ENT1 Inhibitors” (iTeos Belgium SA, priority 2023, published 2024):
Marks after values point to notes of the source that are not given here.

Columns and labels:
[1] = TG/DSC and DSC thermal analysis; assay type: physicochemical; details: listed as Crystalline Form 8 Compound 1 mono(hydrogen sulfate)
Description: (§1) In the examples below, to measure TGA/DSC, 2-10 mg of material was added into a pre-tared open aluminum pan and loaded into a TA Instruments Discovery SDT 650 Auto—Simultaneous DSC and held at room temperature. The sample was then heated at a rate of 10° C./min from 30° C. to 400° C. during which time the change in sample weight was recorded along with the heat flow response (DSC). Nitrogen was used as the sample purge gas, at a flow rate of 200 cm^3/min.
(§2) METHOD A: In Example 3, 1-5 mg of material was weighed into an aluminum DSC pan and sealed non-hermetically with a pierced aluminum lid. The sample pan was then loaded into a TA DSC2500 and held at 20° C. Once a stable heat-flow response was obtained, the sample and reference were heated to an upper temperature of 200° C. at a scan rate of 10° C./min and the resulting heat flow response monitored. The sample was held at the upper temperature for 3 minutes, before it was cooled at 10° C./min to 20° C., reheated to the upper temperature at 10° C./min, and then cooled again to 20° C. at the same rate. Nitrogen was used as the purge gas, at a flow rate of 50 cm^3/min.
as §2, with “B:” for “A:”, “Examples 2A, 14, and 17,” for “Example 3,”, “−80° C. and then” for “20° C.,”, “C./min.” for “C./min, and then cooled again to 20° C. at the same rate.”
METHOD C: In Example 5, 1-5 mg of a sample were weighed into an aluminum DSC pan and sealed non-hermetically with an aluminum lid. The sample pan was then loaded into a TA Instruments Discovery DSC 2500 differential scanning calorimeter equipped with a RC90 cooler. The sample and reference were heated to 190° C. at a scan rate of 10° C./min and the resulting heat flow response monitored. The sample was re-cooled to −80° C. and then reheated again to 190° C. all at 10° C./min. Nitrogen was used as the purge gas, at a flow rate of 50 cm^3/min.
as §1, with “2-10” for “In the examples below, to measure TGA/DSC, 2-10”, “Auto-Simultaneous” for “Auto—Simultaneous”
as §2, with “1-5” for “METHOD A: In Example 3, 1-5”, “min,” for “minutes,”

[2] = salt screen, XRPD of damp, dried and 40° C./75% RH stored samples (Salt Preparation Methods 1 and 2); assay type: physicochemical; design: key to XRPD Analysis Damp/Dry: A = amorphous; Evap. = isolated via evaporation; details: Benzoic acid, 1 equiv.
In short: (§3)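 Free base (~25 mg) was stirred at 40 °C with 1.0 or 2.0 equiv. acid in the test solvent, then temperature-cycled 40–5 °C (0.1 °C/min, 1 h holds) with anti-solvent addition as needed. Solids were isolated at 5 °C and run by XRPD damp, after vacuum drying at ~40 °C for ~17–91 h, and after 24–48 h at 40 °C/75% RH.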

[3] = as above; assay type: physicochemical; design: key: A = amorphous; Evap. = isolated via evaporation; details: Benzoic acid, 1 equiv., AS Heptane
In short: as §3

[4] = as above; assay type: physicochemical; design: key: A = amorphous; PC = poorly crystalline; *= predominantly; 1 = Form 1 Compound 1 benzoate; 2 = Form 2 Compound 1 benzoate; 3 = Form 3 Compound 1 benzoate; details: Benzoic acid, 1 equiv.
Description: Salt Preparation Method 1: Approximately 25 mg of Compound 1 (free base) was weighed out into 1.5 mL screw-cap vials and a stirrer bar was added. For solid counterions, the appropriate amount of acid (1.0 or 2.0 equiv.) was weighed into separate 1.5 mL screw-cap vials. 100 μL of the appropriate solvent system was added to both the Compound 1 and the solid counterions. Stock solutions of liquid counterions were prepared, such that 100 μL contained 1.0 or 2.0 equiv. of acid. See counterion and solvent lists in Table 60 and Table 61 respectively.
The samples were stirred at 40° C. for 5-10 min and then the acid solutions were added to Compound 1, rinsing out the transfer vial with a further 50 μL of solvent. […] Experiments were temperature cycled between 40° C. and 5° C. (1 h hold; 0.1° C./min ramp/cool) for ca. 24-68 h. Anti-solvent addition (ASA) was carried out to slurries at 5° C. then experiments were heated to 30° C. over 1 h. ASA was carried out at 30° C. or 40° C. where clear solutions or gums were observed.
Temperature cycling was then continued for ca. 16-69 h, followed by further ASA and temperature cycling if required. Material was isolated at 5° C. and analyzed damp by XRPD. All isolated material was dried under vacuum at ca. 40° C. for ca. 17-91 h then re-analyzed by XRPD. The XRPD plate was stored at 40° C./75% RH for 24-48 h and then samples re-analyzed. Solutions were stored uncapped at ambient temperature to evaporate. Any residual solids were analyzed by XRPD.
Salt Preparation Method 2: The general procedure adopted in preparing the potential salts is outlined below. A known mass of Compound 1 (free base) and a known volume of the appropriate solvent system were added to 20 mL scintillation vials. The required mol. equiv. of the appropriate counterions were added to the vials as solutions or slurries in the corresponding solvent system.
The experiments were stirred at 40° C. for ca. 1 h, and then temperature cycled between 40° C. and 5° C. with 0.1° C./min ramp and 1 h hold between each step. Anti-solvent additions and subsequent slurrying at 5° C. were employed in order to facilitate crystallization. […] The damp and dried solids were subsampled and analyzed by XRPD. Where applicable, the dried solids were stored at 40° C./75% RH for 24-48 h in order to improve the crystallinity and/or facilitate solid form conversion to the desired form.

ENT1 = target: T1, ENT1 (Homo sapiens, UniProt Q99808); test: ENT1 activity: intracellular uptake of 5-Ethynyl-Uridine (5EU) in whole blood, CD19 positive cells, flow cytometry; assay type: cell-based; details: 5EU 60 min at 37° C.
T1 construct: endogenous in cells; host or cells: CD19-positive cells (B cells) in whole blood from healthy donors
T1 sequence (Q99808 1-456): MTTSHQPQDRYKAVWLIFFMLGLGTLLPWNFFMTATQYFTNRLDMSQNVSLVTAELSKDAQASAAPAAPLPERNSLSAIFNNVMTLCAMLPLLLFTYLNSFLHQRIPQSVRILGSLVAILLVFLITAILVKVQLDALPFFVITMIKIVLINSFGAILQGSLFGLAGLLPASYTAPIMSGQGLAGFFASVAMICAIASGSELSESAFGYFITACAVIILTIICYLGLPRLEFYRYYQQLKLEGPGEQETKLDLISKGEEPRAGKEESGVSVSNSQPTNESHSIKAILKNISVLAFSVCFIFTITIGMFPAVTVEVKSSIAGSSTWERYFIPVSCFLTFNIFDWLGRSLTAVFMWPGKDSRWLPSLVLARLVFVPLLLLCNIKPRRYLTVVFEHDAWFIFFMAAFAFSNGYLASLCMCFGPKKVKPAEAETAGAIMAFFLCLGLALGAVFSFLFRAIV
Description: Example 20-ENT1 Activity of Crystalline Form 2 Compound 1 di(hydrogen sulfate) trihydrate compared to Compound 1 (free base)-Initial and after Six-Month Storage: (1) Initial time: Whole blood from 8 healthy donors was incubated with 5-Ethynyl-Uridine (5EU, CAS #: 69075-42-9, Jena Bioscience) for 60 min at 37° C., in the absence or presence of freshly suspended 1 μM Compound 1 (free base) or 1 μM Form 2 Compound 1 di(hydrogen sulfate) trihydrate. Intracellular uptake of 5EU through ENT1 transporters was assessed by standard flow cytometry and ENT1 activity was determined.
In FIG. 101, the data are expressed as % of ENT1 activity in untreated CD19 cells, arbitrary set at 100%, and are the means±SD of three independent experiments. Statistical analysis was performed using one-way analysis of variance (ANOVA) followed by Tukey's post hoc analysis with Prism 10.1.2 software (GraphPad Software). *: p<0.0001 vs. untreated B cells; ns: non-significant.
(2) Six months: Compound stability was evaluated on suspended solutions of Compound 1 (free base) or Form 2 Compound 1 di(hydrogen sulfate) trihydrate that were stored at −20° C. for 6 months. On the day of the experiment, whole blood from 3 healthy donors was incubated with 5-Ethynyl-Uridine (5EU, CAS #: 69075-42-9, Jena Bioscience) for 60 min at 37° C., in the absence or presence of either 1 μM Compound 1 (free base) or 1 μM Form 2 Compound 1 di(hydrogen sulfate) trihydrate of 6-month-old solutions. Intracellular uptake of 5EU through ENT1 transporters was assessed by standard flow cytometry and ENT1 activity was determined.
In FIG. 102, the data are expressed as % of ENT1 activity in untreated CD19 cells, arbitrary set at 100%, and are the means±SD. Statistical analysis was performed using two-way analysis of variance (ANOVA) with Prism 10.1.2 software (GraphPad Software). *: p<0.05 vs. untreated B cells; **: p<0.01 vs. untreated B cells; ns: non-significant.

[5] = hydration mapping studies (slurries at different water activities, Example 17); assay type: physicochemical; design: key to XRPD, hydration studies - dried samples: A: amorphous; Crystalline Form 10 mono(hydrogen sulfate)
Description: Example 17—Hydration Mapping Studies-Crystalline Form 2 Compound 1 di(hydrogen sulfate) trihydrate, Crystalline Form 3 Compound 1 di(hydrogen sulfate), and Blend: The effects of different water activities on crystalline Form 2 Compound 1 di(hydrogen sulfate) trihydrate, crystalline Form 3 Compound 1 di(hydrogen sulfate) and a blend of the two were investigated. The “blend” was prepared by mixing crystalline Form 2 Compound 1 di(hydrogen sulfate) trihydrate and crystalline Form 3 Compound 1 di(hydrogen sulfate) in a 1:1 ratio. To the vials containing the required solid material, the appropriate solvent system was added to form slurries. The slurry samples were stirred at the required temperatures during and after the solvent addition. Where dissolution was observed post-solvent addition, additional solid was added to re-saturate the sample. After stirring at the required temperature for 48 hours, the residual solids left in the vials were analyzed by XRPD to assess the solid forms. The analyzed samples were then dried on the XRPD plate under reduced pressure at 40° C. for 24 hr. The dried samples were analyzed by XRPD.

With `COc1cc(C(=O)O[C@@H]2CCCOc3cc(cc(OC)c3OC)C(=O)NCCCN3CCCN(CC2)CC3)cc(OC)c1OC.O=S(=O)(O)O` the TGA/DSC mass loss [1] was 7.2% mass loss, the “TGA/DSC thermal event, onset” value ([1]; value before the brackets) was 144 °C and the “TGA/DSC thermal event, peak” value ([1]; value in brackets) was 158 °C.
In the case of `O=C(O)c1ccccc1` [Benzoic acid, 1 equiv.], the “XRPD Analysis Damp/Dry” value ([2]; Acetonitrile, AS BME, (evap.)) is reported as “A (evap.)”, the “XRPD Analysis 40° C. 75% RH” value ([2]; Ethanol, AS Heptane) is reported as 2 + 3 and the “XRPD Analysis Damp” value ([2]; Ethanol, AS Heptane) is reported as 2*. For the same molecule, the “XRPD Analysis 40° C. 75% RH” value ([2]; IPA:H2O (75:25% v/v), AS tBME) was 2 + 3, the “XRPD Analysis 40° C. 75% RH” value ([2]; MEK, AS Heptane) was 1 + 3 and the “XRPD Analysis Damp” value ([2]; MEK, AS Heptane) was 1*. The “XRPD Analysis Dry” value ([2]; MEK, AS Heptane) was 1, PC, the “XRPD Analysis Damp” value ([2]; THF, AS Heptane) was 1 + 2 and the “XRPD Analysis Dry” value ([3]; Ethanol) was “A”. For the same molecule, the “XRPD Analysis Dry” value ([3]; THF) was “A”, the “XRPD Analysis 40° C. 75% RH” value ([4]; Ethyl acetate, AS Heptane) was 1 and the “XRPD Analysis Damp” value ([4]; Ethyl acetate, AS Heptane) was 1. For the same molecule, the “XRPD Analysis Dry” value ([4]; Ethyl acetate, AS Heptane) was 1, the “XRPD Analysis Damp” value ([4]; IPA:H2O (75:25% v/v), AS tBME) was 2 and the “XRPD Analysis Dry” value ([4]; IPA:H2O (75:25% v/v), AS tBME) was 2. For the same molecule, the “XRPD Analysis 40° C. 75% RH” value ([4]; THF, AS Heptane) was 3.
In the case of `COc1cc(C(=O)O[C@@H]2CCCOc3cc(cc(OC)c3OC)C(=O)NCCCN3CCCN(CC2)CC3)cc(OC)c1OC` [Compound 1, (16R)-9,10-dimethoxy-6-oxo-12-oxa-1,5,19-triazatricyclo[17.3.2.1^7,11]pentacosa-7(25), 8,10-trien-16-yl 3,4,5-trimethoxybenzoate], the “decrease of ENT1 activity compared to untreated CD19 positive cells” value (ENT1; 1 μM of solutions stored at −20° C. for 6 months, whole blood from 3 healthy donors) is reported as “No significant effect” and the “decrease of ENT1 activity compared to untreated CD19 positive cells” value (ENT1; 1 μM, freshly suspended, whole blood from 8 healthy donors) is reported as 49.8%.
In the case of `COc1cc(C(=O)O[C@@H]2CCCOc3cc(cc(OC)c3OC)C(=O)NCCCN3CCCN(CC2)CC3)cc(OC)c1OC.O=S(=O)(O)O.O=S(=O)(O)O` [blended material], the “XRPD, hydration studies - dried samples” value ([5]; 50° C., Acetonitrile:Water, aw 0.9, dried 40° C. reduced pressure 24 hr) is reported as “M10”, the “solid form by XRPD after slurrying” value ([5]; acetonitrile:water solvent systems with aw≤0.5, 48 hours) is reported as “some crystalline Form 3 Compound 1 di(hydrogen sulfate) was retained” and the “solid form by XRPD after slurrying” value ([5]; acetonitrile:water systems with aw>0.5, 48 hours) is reported as “Crystalline Form 2 Compound 1 di(hydrogen sulfate) trihydrate was observed”. For the same molecule, the “solid form by XRPD after slurrying” value ([5]; all the 2-propanol:water solvent systems, 48 hours) was “Crystalline Form 2 Compound 1 di(hydrogen sulfate) trihydrate was also observed”.
